In US20020115703A1, “Prevention of development of dyskinesias” (priority 2000, published 2002):

System: locomotor hyperactivity induced by repeated administration of D-amphetamine
Experiment: Locomotor (ambulatory) activity after repeated D-amphetamine administration (behavioral sensitization), photobeam activity system
Type: in vivo, mice
Description: The effects of atipamezole on the locomotor hyperactivity induced by repeated administration of D-amphetamine were studied in male mice.
Experiments were performed with C57BL/ 6J strain male mice from Jackson Laboratories. Mice were transferred to the laboratory at least 2 weeks prior to use. The mice were from 8 to 20 weeks of age at the beginning of an experiment. Groups of 10 mice were housed in standard polypropylene cages (38×22×15 cm) with free access to standard certified pelleted food (RM1 Maintenance Expanded SQC; Special Diet Services, Essex, UK) and water. Ambient temperature was 22±1 C.°, and a 12:12 h light dark cycle was maintained with lights on at 6 A.M. All experiments were carried out between 7 A.M. 1 and 5 P.M. The animal care was performed in accordance with International Council for Laboratory Animal Science (ICLAS) guidelines.
D-Amphetamine sulphate (Sigma, St. Louis, Mo., U.S.A.) and atipamezole HCl (Orion Corporation, Orion Pharma, Turku, Finland) were dissolved in saline (0.9% NaCl) and administered subcutaneously (s.c.) in a 5 ml kg volume.
The locomotor activity of the mice was measured in transparent standard polypropylene animal cages (38×22×15 cm) with transparent covers and aspen bedding on the floors. Test cages were placed in the middle of the photobeam frame system (Photobeam Activity System PAS, Cage Rack, San Diego Instruments, San Diego, Calif.). A computer control unit registered the interruptions of photobeams from 16 individual cages. Three different types of movements were monitored: 1) ambulations (large horizontal movements), 2) fine movements (smaller horizontal movements), and 3) rearings (vertical movements). Locomotor activity was measured at 5-min intervals for 2 h immediately after D-amphetamine or saline administrations.
D-amphetamine was administered subcutaneously (s.c.) at a dose of 2 mg/kg. Atipamezole was administered s.c. at a dose of 1 mg/kg 20 min before locomotor activity measurement.
In the chronic treatment group, mice were administered the dose during eight days to elicit provoked locomotor hyperactivity to D-amphetamine and the effect of the atipamezole to the locomotor activity. Mice groups in the chronic treatment schedule were saline, saline-amphetamine, amphetamine, atipamezole and atipamezole-amphetamine. A day before experiment, mice were habituated to the test environment. Test groups with different drug treatments were administrated during four consecutive days. At days five and six, there were no drug administrations nor motor activity testing. At days seven and eight, the produced locomotor hyperactivity and effect of a single exposure of D-amphetamine (saline-amphetamine-group) were analysed. (Table 1).
At day nine, the effect of different atipamezole and amphetamine administrations to the locomotor activity on the chronic treatment groups were analysed. Treatments included saline, 1 mg/kg atipamezole, 2 mg/kg D-amphetamine, 0,3 mg/kg atipamezole- 2 mg/kg D-amphetamine and 1 mg/kg atipamezole- 2 mg/kg D-amphetamine. Chronic treatment groups were saline-, atipamezole-, amphetamine- and atipamezole-amphetamine groups. Chronic groups were treated following the schedule in Table 2.
All data are presented as mean ±SEM. Statistical analysis were performed using SPSS 9.0 for Windows (SPSS, Chicago, Ill.). Separate repeated measure analyses of variance (ANOVA) were performed on each variable for each experiment grouped on time and treatment group. Results were analysed separately, because data were collected in separate experiments with different study design. When significance (P<0.05) between treatment groups was found, comparisons at each time point (date or min) were analysed by using LSD post-hoc test.

Compound	D-amphetamine induced locomotion at Day 9, chronic atipamezole-amphetamine group (atipamezole 1 mg/kg 20 min before D-amphetamine 2 mg/kg days 1-9, vs amphetamine-amphetamine group (P<0.001), FIG. 2)	D-amphetamine-induced locomotion, chronic atipamezole pre-treatment (atipamezole 1 mg/kg s.c. 20 min before D-amphetamine 2 mg/kg s.c. over days 1-8, vs amphetamine-amphetamine group, Day 2 P<0.05, Days 3-8 P<0.001, FIG. 1)	locomotor activity, atipamezole pre-treatment before saline challenge (atipamezole 1 mg/kg s.c. daily for six days, atipamezole-saline vs saline group at Day 8 (P=0.43), FIG. 1)	D-amphetamine-induced locomotor hyperactivity at Day 9 (expression of sensitization) (chronic amphetamine group, atipamezole 0.3 mg/kg 20 min before D-amphetamine 2 mg/kg at Day 9 (P=0.005), FIG. 2)	D-amphetamine-induced locomotor hyperactivity at Day 9 (expression of sensitization) (chronic amphetamine group, atipamezole 1 mg/kg 20 min before D-amphetamine 2 mg/kg at Day 9 (P<0.001), FIG. 2)	locomotor activity at Day 9 after chronic atipamezole (chronic atipamezole group (1 mg/kg days 1-8), before saline and D-amphetamine challenge at Day 9, FIG. 2)	development of sensitisation: locomotion at Day 9 with D-amphetamine only (chronic atipamezole-amphetamine group given only D-amphetamine 2 mg/kg at Day 9, vs amphetamine-amphetamine group (P=0.026), FIG. 2)	locomotor activity at Day 9, atipamezole before acute D-amphetamine (chronic saline group, atipamezole 0.3 mg/kg 20 min before D-amphetamine 2 mg/kg, compared to D-amphetamine alone (P=0.016), FIG. 2)	locomotor activity at Day 9, atipamezole before acute D-amphetamine (chronic saline group, atipamezole 1 mg/kg 20 min before D-amphetamine 2 mg/kg, compared to D-amphetamine alone (P=0.364), FIG. 2)	total ambulatory activity counts at Day 9, atipamezole alone (chronic saline group, atipamezole 1 mg/kg 20 min before saline at Day 9 (P=0.81), FIG. 2)	development and expression of sensitization (motor overactivity), overall finding (given chronically in combination with D-amphetamine, in mice)	ambulatory activity (2-h overall counts) during repeated administration (D-amphetamine 2 mg/kg s.c., six repeated administrations over days 1-8, compared to saline group, C57BL/6J male mice, FIG. 1)	ambulatory sensitization at Day 9 (chronic amphetamine group, repeated D-amphetamine 2 mg/kg (P<0.001), FIG. 2)	locomotor activity at Day 9, single D-amphetamine challenge (chronic saline group, D-amphetamine 2 mg/kg at Day 9 (P<0.001 vs saline), FIG. 2)
CCC1(c2cnc[nH]2)Cc2ccccc2C1 [atipamezole, 4-(2-ethyl-2,3-dihydro-1H-inden-2-y1)-1H-imidazole]	decreased significantly D-amphetamine induced locomotion	decreased significantly D-amphetamine-induced locomotion	not a statistically significant difference	clearly attenuated the D-amphetamine-induced locomotor hyperactivity	clearly attenuated the D-amphetamine-induced locomotor hyperactivity	the elevation was not statistically significant	true reduction in the development of sensitisation	amplified locomotor activity	had no effect	did not alter total ambulatory activity counts	reduces the development and expression of sensitization	–	–	–
C[C@H](N)Cc1ccccc1 [D-amphetamine]	–	–	–	–	–	–	–	–	–	–	–	progressive enhance in ambulatory activity	developed strong ambulatory sensitization	significantly enhanced locomotor activity
